The values below come from article PMC11943303 (International Journal of Molecular Sciences, 2025).

Entries after “also recorded” stand apart in the source; their conditions may differ. Read-outs that look alike come from different tables or passages of the source.

Data set [1] concerns the target T1, transient outward potassium current, ITo (Rattus norvegicus, UniProt Q62897+Q63881).
T1 construct: INa and ITo were recorded from freshly isolated left ventricular cardiomyocytes; endogenous in cells; host or cells: freshly isolated left ventricular cardiomyocytes of adult Sprague Dawley rats
T1 sequence (Q63881 1-630): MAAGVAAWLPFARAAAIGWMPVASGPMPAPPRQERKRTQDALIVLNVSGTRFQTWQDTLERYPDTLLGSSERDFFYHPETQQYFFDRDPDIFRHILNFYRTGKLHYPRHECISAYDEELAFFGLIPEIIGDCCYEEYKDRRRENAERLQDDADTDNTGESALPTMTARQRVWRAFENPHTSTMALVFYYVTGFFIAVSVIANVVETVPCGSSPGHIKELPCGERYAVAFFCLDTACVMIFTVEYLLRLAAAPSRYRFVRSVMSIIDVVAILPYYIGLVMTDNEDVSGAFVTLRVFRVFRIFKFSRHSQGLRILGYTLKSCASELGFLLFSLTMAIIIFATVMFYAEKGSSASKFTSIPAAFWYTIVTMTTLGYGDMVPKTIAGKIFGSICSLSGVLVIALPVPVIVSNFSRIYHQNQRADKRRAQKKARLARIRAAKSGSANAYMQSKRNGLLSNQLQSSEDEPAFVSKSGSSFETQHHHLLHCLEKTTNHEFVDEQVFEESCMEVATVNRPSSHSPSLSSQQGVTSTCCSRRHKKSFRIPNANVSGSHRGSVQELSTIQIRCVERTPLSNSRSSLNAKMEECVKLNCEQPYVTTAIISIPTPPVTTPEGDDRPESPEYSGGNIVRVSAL
T1 sequence (Q62897 1-655): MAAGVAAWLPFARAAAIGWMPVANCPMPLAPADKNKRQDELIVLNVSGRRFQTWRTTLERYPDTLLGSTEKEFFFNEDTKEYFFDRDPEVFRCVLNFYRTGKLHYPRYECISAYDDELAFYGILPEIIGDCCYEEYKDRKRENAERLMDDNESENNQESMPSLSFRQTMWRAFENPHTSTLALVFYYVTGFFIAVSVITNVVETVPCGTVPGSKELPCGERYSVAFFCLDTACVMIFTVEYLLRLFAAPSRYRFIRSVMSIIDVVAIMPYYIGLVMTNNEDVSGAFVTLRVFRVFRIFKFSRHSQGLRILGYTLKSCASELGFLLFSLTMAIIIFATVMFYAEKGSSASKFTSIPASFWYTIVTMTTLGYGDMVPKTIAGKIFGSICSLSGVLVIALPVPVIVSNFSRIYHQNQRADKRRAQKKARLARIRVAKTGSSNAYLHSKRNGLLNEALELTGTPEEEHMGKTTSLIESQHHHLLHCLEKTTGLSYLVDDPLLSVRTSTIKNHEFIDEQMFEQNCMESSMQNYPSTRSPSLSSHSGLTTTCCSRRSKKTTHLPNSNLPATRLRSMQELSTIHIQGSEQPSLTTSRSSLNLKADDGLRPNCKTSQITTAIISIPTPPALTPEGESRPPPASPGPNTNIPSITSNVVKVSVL
T1 sequence (Q9JM59 1-270 partner): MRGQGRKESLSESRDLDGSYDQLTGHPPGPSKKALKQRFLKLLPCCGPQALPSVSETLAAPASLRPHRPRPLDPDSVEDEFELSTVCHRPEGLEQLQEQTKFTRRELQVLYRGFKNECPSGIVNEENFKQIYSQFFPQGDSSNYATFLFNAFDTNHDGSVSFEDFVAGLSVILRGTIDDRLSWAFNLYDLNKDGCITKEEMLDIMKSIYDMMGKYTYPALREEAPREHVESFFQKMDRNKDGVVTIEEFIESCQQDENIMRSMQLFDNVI
The data set can be described thus: ITo current block (dose-response, I/V), whole-cell patch clamp in rat cardiomyocytes. As to conditions: 15 min pre-incubation, n = 32, 6 animals; for IC50: Hill equation fit to Gmax,[X]/Gmax,[ctrl], partial block. The format is cell-based, rat (Sprague Dawley). On the procedure:
Ventricular cardiomyocytes from adult rats were isolated by enzymatic dissociation as previously reported. Adult Sprague Dawley rats (Charles River, Montreal, QC, Canada) were heparinized (5000 U) and sedated with 2% Isoflurane in an oxygen chamber (2 L/min). Hearts were excised by thoracotomy and cannulated via the aorta to be mounted on a Langendorff perfusion apparatus. Hearts were initially perfused with standard calcium-free Tyrode solution [21] at 37 °C (3–5 min), at a rate of 13 mL/min, and pre-digested by perfusion with low-calcium (150 μM) Tyrode solution supplemented with 220–280 U/mg of low-trypsin collagenase type 2 (Worthington Biochemical, Toronto, ON, Canada) for less than 15 min.
Once removed from the Langendorf perfusion apparatus, the heart septum and left ventricle were cut and gently shaken for 3 min in a 50/50 solution (digestion sln/low-calcium Tyrode solution) to disperse the isolated cells. The supernatant of the cell solution was filtered, and cells were left to settle in a 15 mL conical tube. The procedure was repeated 4 times, and cells were divided into fractions. Cardiomyocyte pellets from each fraction were washed with low-calcium Tyrode solution. For the final washing, supernatant solution was removed and replaced by standard Kraftbrühe (KB) solution [21], and the cells were kept at 4 °C.
INa and ITo were recorded from freshly isolated left ventricular cardiomyocytes and TSA201 cells after 48 h of transfection at room temperature. Electrical currents were recorded using the patch-clamp technique in whole-cell configuration via an Axopatch 200B amplifier (Molecular Devices, Sunnyvale, CA, USA). Cardiomyocytes and TSA201 cells were pre-incubated with 2Nal during 15 min and continuously perfused during recordings. In preliminary experiments, we measured the onset of the block by 2Nal by initially superfusing with control solution and subsequently washing in 2Nal solution. Recordings were acquired at 10 kHz and filtered to 5 kHz (lowpass Bessel filter). Whole-cell capacitance and series resistance compensation (85%) were optimized to reduce the capacitive artifact and minimize voltage error. Analysis of the recordings was performed using the Clampex 10.7 analysis software.
Extracellular solution for ITo recordings in cardiomyocytes contained (in mM) 126 NaCl, 5.4 KCl, 1 MgCl2, 20 HEPES, 2 CaCl2, and 11 glucose. The pH and osmolarity were adjusted to 7.4 and 295–300 mOsm, respectively, using NaOH and sucrose. Pipette solution contained (in mM) 90 K-aspartate, 30 KCl, 1 MgCl2, 20 HEPES, 5 NaCl, 5 MgATP, 5.5 Glucose. The pH was adjusted with KOH to 7.3 and osmolarity to 295–300 mOsm. For ITo recordings in TSA201 cells, extracellular solution contained 130 NaCl, 5 KCl, 1 MgCl2, 2.8 Na-acetate, 10 HEPES, 1.8 CaCl2, and 10 glucose. […]
(In patch-clamp work, channel activity is measured electrically.)

In data set [2] the test system is rabbit left-atrium cardiomyocytes. Further details: method as in PMID 23106642. As to conditions: cited from earlier work.
In a further data set the test system is artery. Conditions: by enhancing nitric oxide (NO) production in the endothelium; cited from earlier work. An excerpt:
(§1) Apelin is an endogenous peptide recognized for its therapeutic potential in hypertension and heart failure, as well as for its modulation of the endocrine system. This adipokine is primarily synthesized in adipose tissue but is also produced in the gastrointestinal tract, brain, kidney, lung, mammary glands, and cardiovascular system.

The next data set concerns heart. As to conditions: cited from earlier work.
Source text: as §1

Data set [3] concerns transient outward potassium current, ITo, and its sustained component, IKsus. Further details: method as in PMID 18424641, PMID 12215493. As to conditions: cited from earlier work.
The subject of data set [4] is cardiac sodium current (INa). Conditions: cited from earlier work. The text has this:
At this stage, we cannot distinguish how specific affinities of Kv4.2 or Kv4.3 for 2Nal modulate the overall effect on ITo amplitude in native cardiomyocytes. However, our observation of apparent EC50 differing between the peak and sustained co ...

In data set [5] the test system is ultra-rapid potassium current. Further details: method as in PMID 23106642. As to conditions: rabbit left-atrium cardiomyocytes; cited from earlier work.
Data set [6] has as its system large conductance calcium-activated K^+ channels. As to conditions: cited from earlier work.
Details of data set [7]: method as in PMID 10777510, PMID 18272843. As to conditions: isoforms identified in vivo; cited from earlier work.

Turning to `CSCC[C@H](NC(=O)[C@@H]1CCCN1C(=O)CNC(=O)[C@H](CCCCN)NC(=O)[C@H](Cc1c[nH]cn1)NC(=O)[C@H](CO)NC(=O)[C@H](CC(C)C)NC(=O)[C@H](CCCNC(=N)N)NC(=O)[C@@H]1CCCN1C(=O)[C@H](CCCNC(=N)N)NC(=O)[C@@H](N)CCC(N)=O)C(=O)N1CCC[C@H]1C(=O)N[C@@H](Cc1ccc2ccccc2c1)C(=O)O` [2Nal], the “Maximum block of ITo,peak” value in [1] (peak component, Gmax ratio, holding −80 mV, 500 ms steps, mean ± SEM) was 34.2 ± 5.6%. Further, the IC50 is 300 ± 100 pM in data set [1] (peak component, read-out: IC50 (half-maximal blocking concentration) for ITo,peak) and 24 ± 10 pM in [1] (sustained component, read-out: IC50 (half-maximal blocking concentration) for ITo,sus). For the same compound, the “Maximum block of ITo,sus” value in [1] (sustained component, Gmax ratio, holding −80 mV, 500 ms steps, mean ± SEM) is 47 ± 9.2%.
For apelin, in data set [2], the “effect on action potential duration” value is “reduces action potential duration (APD)”. In the data set with artery, the “vasodilation” value is recorded as “triggers arterial vasodilation”. In addition, the “cardiac inotropic effect” value with heart is on record as “strong positive cardiac inotropic effects”. The “effect on ITo and IKsus” value in data set [3] is listed as “no effects”. Besides, in [4], the “effect on cardiac sodium current INa” value was “increase in INa; also recorded: modulate cardiac sodium current (INa) gating and enhance its amplitude”. The “effect on ultra-rapid potassium current” value in data set [5] was “blocks the ultra-rapid potassium current”. In data set [6], the “effect on large conductance calcium-activated K+ channels” value is “inhibiting large conductance calcium-activated K^+ channels”.
Regarding “apelin-36: predominant apelin isoform identified in vivo (LVQPRGSRNGPGPWQGGRRKFRRQRPRLSHKGPMPF; Apelin-36; UniProt Q9ULZ1 42-77, looked up)”, the “susceptibility to proteolysis” value in data set [7] was “highly susceptible to proteolysis”.
